Data on 16 molecules can be found in US20090304692A1, “TRIAZINE COMPOUNDS AS PI3 KINASE AND MTOR INHIBITORS” (Wyeth, priority 2008, published 2009).

Where two headings read alike, the source gives them in different places.

In one experiment the target is PI3K-γ (Homo sapiens, UniProt P48736). As to the kind of experiment: PI3K-gamma fluorescence polarization assay. (Polarisation of emitted light reports the rotation of a fluorescent probe.)
In the next experiment the target is PI3K-α (Homo sapiens, UniProt P42336). As to the kind of experiment: PI3K-alpha fluorescence polarization assay. The note with it: read-out: IC50 PI3Kα.
PI3K-α, sequence (P42336 whole entry, species assumed): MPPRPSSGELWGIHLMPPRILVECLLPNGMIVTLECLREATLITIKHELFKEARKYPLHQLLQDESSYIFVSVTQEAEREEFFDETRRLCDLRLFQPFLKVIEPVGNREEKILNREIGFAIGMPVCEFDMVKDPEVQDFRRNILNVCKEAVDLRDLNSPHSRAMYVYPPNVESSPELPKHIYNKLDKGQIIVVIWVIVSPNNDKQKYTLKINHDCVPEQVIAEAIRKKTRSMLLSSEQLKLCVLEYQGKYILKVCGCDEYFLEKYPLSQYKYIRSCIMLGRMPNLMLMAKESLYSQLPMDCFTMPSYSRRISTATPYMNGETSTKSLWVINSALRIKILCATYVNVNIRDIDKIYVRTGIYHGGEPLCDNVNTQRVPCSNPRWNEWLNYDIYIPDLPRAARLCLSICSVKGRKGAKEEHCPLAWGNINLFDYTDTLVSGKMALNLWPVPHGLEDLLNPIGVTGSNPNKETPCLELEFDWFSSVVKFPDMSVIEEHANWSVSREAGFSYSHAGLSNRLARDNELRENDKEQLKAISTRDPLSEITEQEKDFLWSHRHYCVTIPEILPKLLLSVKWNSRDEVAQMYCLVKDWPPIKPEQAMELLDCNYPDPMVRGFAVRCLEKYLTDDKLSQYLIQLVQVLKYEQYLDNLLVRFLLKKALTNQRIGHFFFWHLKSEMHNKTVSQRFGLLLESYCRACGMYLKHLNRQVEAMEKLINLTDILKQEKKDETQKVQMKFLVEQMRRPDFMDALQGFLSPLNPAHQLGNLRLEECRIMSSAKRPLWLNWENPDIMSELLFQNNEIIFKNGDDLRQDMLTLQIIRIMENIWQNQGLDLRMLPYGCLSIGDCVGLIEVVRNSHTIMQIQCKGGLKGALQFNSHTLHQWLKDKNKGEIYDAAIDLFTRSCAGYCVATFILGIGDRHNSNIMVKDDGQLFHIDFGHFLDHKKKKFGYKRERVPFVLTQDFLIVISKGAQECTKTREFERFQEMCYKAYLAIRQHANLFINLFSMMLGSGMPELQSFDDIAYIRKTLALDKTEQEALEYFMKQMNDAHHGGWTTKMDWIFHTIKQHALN
PI3K-α, sequence (P27986 whole entry partner, species assumed): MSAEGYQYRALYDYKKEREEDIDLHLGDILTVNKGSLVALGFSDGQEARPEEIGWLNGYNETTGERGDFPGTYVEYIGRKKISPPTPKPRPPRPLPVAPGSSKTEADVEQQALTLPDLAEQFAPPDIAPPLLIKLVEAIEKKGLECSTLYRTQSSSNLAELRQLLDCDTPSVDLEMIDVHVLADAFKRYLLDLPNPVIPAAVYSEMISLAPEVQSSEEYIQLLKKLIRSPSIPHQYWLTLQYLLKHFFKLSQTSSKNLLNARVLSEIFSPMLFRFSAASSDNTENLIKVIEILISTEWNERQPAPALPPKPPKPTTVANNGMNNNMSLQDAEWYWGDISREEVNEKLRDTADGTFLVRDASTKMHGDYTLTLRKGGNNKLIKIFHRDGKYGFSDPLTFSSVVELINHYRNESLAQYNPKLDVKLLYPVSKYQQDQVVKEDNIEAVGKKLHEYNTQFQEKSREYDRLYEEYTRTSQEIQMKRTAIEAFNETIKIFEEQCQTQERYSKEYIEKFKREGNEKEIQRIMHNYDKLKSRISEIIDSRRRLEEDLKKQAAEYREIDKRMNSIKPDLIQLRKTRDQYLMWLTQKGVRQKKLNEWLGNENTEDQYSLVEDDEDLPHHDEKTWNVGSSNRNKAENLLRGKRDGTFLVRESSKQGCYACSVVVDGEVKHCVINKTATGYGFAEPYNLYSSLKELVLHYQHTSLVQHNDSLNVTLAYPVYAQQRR
The target of another experiment is Human mTOR (FLAG-TOR) (Homo sapiens, UniProt P42345). As to the kind of experiment: mTOR kinase assay (DELFIA format, purified enzyme). It is filed as biochemical. Particulars: read-out: IC50 mTOR.
Human mTOR (FLAG-TOR), sequence (P42345 1360-2549 limits assumed): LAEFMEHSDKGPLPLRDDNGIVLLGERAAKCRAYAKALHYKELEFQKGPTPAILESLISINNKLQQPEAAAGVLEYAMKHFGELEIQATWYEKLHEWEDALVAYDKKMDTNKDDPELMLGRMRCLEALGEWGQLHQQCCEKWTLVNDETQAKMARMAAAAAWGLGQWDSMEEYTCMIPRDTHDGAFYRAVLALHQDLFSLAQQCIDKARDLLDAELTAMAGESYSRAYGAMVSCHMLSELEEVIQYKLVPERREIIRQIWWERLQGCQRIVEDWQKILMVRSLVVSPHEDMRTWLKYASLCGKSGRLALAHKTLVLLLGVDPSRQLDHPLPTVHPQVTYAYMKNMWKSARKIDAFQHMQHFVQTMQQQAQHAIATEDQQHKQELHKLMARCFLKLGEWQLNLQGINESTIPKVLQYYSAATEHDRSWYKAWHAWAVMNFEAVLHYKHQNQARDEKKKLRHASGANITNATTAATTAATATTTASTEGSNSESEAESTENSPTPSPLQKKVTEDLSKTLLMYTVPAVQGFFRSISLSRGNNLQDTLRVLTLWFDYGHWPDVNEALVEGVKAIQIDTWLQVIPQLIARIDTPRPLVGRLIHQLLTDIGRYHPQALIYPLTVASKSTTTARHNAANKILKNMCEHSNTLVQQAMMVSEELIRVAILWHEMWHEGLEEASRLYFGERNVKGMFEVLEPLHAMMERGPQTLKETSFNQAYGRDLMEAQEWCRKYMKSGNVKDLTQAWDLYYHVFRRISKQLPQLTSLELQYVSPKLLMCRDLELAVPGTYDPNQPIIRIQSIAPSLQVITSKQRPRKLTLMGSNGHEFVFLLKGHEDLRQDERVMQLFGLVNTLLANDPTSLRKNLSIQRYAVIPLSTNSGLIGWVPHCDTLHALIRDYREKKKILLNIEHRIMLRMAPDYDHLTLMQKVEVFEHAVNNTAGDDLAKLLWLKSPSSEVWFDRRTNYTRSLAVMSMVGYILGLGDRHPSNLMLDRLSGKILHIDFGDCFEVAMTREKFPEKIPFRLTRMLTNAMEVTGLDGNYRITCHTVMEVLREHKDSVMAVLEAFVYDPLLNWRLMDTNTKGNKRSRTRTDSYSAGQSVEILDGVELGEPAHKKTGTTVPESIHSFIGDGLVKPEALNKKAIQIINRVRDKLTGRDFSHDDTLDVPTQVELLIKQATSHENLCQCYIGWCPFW

PI3K-γ, sequence (P48736 whole entry, species assumed): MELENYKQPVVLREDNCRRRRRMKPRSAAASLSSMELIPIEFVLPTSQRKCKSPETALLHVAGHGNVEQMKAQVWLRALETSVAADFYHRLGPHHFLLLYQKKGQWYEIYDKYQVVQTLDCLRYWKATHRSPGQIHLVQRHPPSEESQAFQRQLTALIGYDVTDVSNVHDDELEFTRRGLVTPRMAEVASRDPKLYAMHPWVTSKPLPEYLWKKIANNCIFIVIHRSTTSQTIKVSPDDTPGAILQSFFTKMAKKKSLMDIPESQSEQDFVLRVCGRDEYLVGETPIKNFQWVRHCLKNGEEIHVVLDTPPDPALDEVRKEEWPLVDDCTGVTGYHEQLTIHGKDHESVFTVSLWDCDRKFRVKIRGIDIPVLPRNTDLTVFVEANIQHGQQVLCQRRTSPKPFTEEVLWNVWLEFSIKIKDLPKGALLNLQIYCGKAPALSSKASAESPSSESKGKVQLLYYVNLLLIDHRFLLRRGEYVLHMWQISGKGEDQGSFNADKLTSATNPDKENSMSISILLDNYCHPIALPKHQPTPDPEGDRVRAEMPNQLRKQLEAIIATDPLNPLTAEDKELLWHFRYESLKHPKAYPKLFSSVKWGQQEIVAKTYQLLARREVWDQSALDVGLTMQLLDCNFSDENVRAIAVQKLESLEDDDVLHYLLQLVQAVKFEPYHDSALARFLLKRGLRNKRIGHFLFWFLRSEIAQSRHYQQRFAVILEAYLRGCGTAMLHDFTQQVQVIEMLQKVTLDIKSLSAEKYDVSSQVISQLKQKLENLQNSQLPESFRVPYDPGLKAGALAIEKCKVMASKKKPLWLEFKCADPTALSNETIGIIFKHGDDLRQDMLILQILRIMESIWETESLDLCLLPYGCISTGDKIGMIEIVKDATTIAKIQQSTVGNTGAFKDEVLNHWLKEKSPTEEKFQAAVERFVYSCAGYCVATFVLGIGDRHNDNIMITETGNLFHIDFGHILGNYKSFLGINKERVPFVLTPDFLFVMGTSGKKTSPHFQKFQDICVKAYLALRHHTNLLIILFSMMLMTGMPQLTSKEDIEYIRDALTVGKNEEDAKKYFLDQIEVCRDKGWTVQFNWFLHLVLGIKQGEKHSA

Broadly, the IC50 is the concentration at which inhibition is half-maximal. With `CCS(=O)(=O)N1CCN(c2nc(-c3ccc(NC(=O)Nc4ccc(C(=O)OC)cc4)cc3)nc(N3CCOCC3)n2)CC1` [Example 651, methyl 4-{[(4-{4-[4-(ethylsulfonyl)piperazin-1-yl]-6-morpholin-4-yl-1,3,5-triazin-2-yl}phenyl)carbamoyl]amino}benzoate], the IC50 on PI3K-γ (read-out: IC50 PI3Kγ) was determined as 248 nM; on PI3K-α it was 71 nM; on Human mTOR (FLAG-TOR) it was 14 nM.

Take `CCS(=O)(=O)N1CCN(c2nc(-c3ccc(NC(=O)Nc4ccc(C(=O)O)cc4)cc3)nc(N3CCOCC3)n2)CC1` [Example 652, 4-{[(4-{4-[4-(ethylsulfonyl)piperazin-1-yl]-6-morpholin-4-yl-1,3,5-triazin-2-yl}phenyl)carbamoyl]amino}benzoic acid]: the results for the IC50 on PI3K-γ (read-out: IC50 PI3Kγ), at PI3K-α and on Human mTOR (FLAG-TOR) were 84.5 nM, 36 nM and 4 nM, respectively.

As for `CCS(=O)(=O)N1CCN(c2nc(-c3ccc(NC(=O)Nc4ccc(C(=O)NCCCN(C)C)cc4)cc3)nc(N3CCOCC3)n2)CC1` [Example 653, N-[3-(dimethylamino)propyl]-4-{[(4-{4-[4-(ethylsulfonyl)piperazin-1-yl]-6-morpholin-4-yl-1,3,5-triazin-2-yl}phenyl)carbamoyl]amino}benzamide], the IC50 on PI3K-γ (read-out: IC50 PI3Kγ) was found to be 34 nM; on PI3K-α, 4.1 nM; on Human mTOR (FLAG-TOR), 7 nM.

In the case of `CCS(=O)(=O)N1CCN(c2nc(-c3ccc(NC(=O)Nc4ccc(C(=O)NCCN(C)C)cc4)cc3)nc(N3CCOCC3)n2)CC1` [Example 654, N-[2-(dimethylamino)ethyl]-4-{[(4-{4-[4-(ethylsulfonyl)piperazin-1-yl]-6-morpholin-4-yl-1,3,5-triazin-2-yl}phenyl)carbamoyl]amino}benzamide], the values for the IC50 on PI3K-γ (read-out: IC50 PI3Kγ), at PI3K-α and at Human mTOR (FLAG-TOR) were 70 nM, 6 nM and 8 nM, respectively.

`CC(C)N1CCCN(c2nc(-c3ccc(NC(=O)Nc4ccc(C(=O)O)cc4)cc3)nc(N3CCOCC3)n2)CC1` [Example 655, 4-{[(4-{4-[4-(1-methylethyl)-1,4-diazepan-1-yl]-6-morpholin-4-yl-1,3,5-triazin-2-yl}phenyl)carbamoyl]amino}benzoic acid]: the half-maximal inhibitory concentration (IC50) on PI3K-γ (read-out: IC50 PI3Kγ) was 746 nM; on PI3K-α it was 91.5 nM; on Human mTOR (FLAG-TOR) it was 625 nM.

With `COC(=O)c1ccc(NC(=O)Nc2ccc(-c3nc(N4CCOCC4)nc(N4CCC(NC(C)=O)CC4)n3)cc2)cc1` [Example 656, methyl 4-{[(4-{4-[4-(acetylamino)piperidin-1-yl]-6-morpholin-4-yl-1,3,5-triazin-2-yl}phenyl)carbamoyl]amino}benzoate], the concentration for half-maximal inhibition (IC50) at PI3K-γ (read-out: IC50 PI3Kγ) was determined as 651 nM; on PI3K-α, 73 nM; on Human mTOR (FLAG-TOR), 19 nM.

In the case of `CC(C)N1CCCN(c2nc(-c3ccc(NC(=O)Nc4ccc(C(=O)N5CCN(C)CC5)cc4)cc3)nc(N3CCOCC3)n2)CC1` [Example 657, 1-(4-{4-[4-(1-methylethyl)-1,4-diazepan-1-yl]-6-morpholin-4-yl-1,3,5-triazin-2-yl}phenyl)-3-{4-[(4-methylpiperazin-1-yl)carbonyl]phenyl}urea], the IC50 on PI3K-γ (read-out: IC50 PI3Kγ) is 128 nM; on PI3K-α it was 11.5 nM; at Human mTOR (FLAG-TOR) it was 385 nM.

In the case of `CC(=O)NC1CCN(c2nc(-c3ccc(NC(=O)Nc4ccncc4)cc3)nc(N3CCOCC3)n2)CC1` [Example 658, N-[1-(4-morpholin-4-yl-6-{4-[(pyridin-4-ylcarbamoyl)amino]phenyl}-1,3,5-triazin-2-yl)piperidin-4-yl]acetamide], the IC50 on PI3K-γ (read-out: IC50 PI3Kγ) is 265 nM; at PI3K-α, 41.5 nM; at Human mTOR (FLAG-TOR), 20 nM.

On to `CC(=O)NC1CCN(c2nc(-c3ccc(NC(=O)Nc4ccc(C(=O)O)cc4)cc3)nc(N3CCOCC3)n2)CC1` [Example 659, 4-{[(4-{4-[4-(acetylamino)piperidin-1-yl]-6-morpholin-4-yl-1,3,5-triazin-2-yl}phenyl)carbamoyl]amino}benzoic acid], for which the IC50 against PI3K-γ was no less than 10000 nM; at PI3K-α it was 3620 nM; at Human mTOR (FLAG-TOR), 720 nM.

In the case of `CC(C)N1CCCN(c2nc(-c3ccc(NC(=O)Nc4ccc(C(=O)NCCN(C)C)cc4)cc3)nc(N3CCOCC3)n2)CC1` [Example 660, N-[2-(dimethylamino)ethyl]-4-{[(4-{4-[4-(1-methylethyl)-1,4-diazepan-1-yl]-6-morpholin-4-yl-1,3,5-triazin-2-yl}phenyl)carbamoyl]amino}benzamide], the concentration for half-maximal inhibition (IC50) at PI3K-γ (read-out: IC50 PI3Kγ) was found to be 168 nM; on PI3K-α, 7.5 nM; on Human mTOR (FLAG-TOR) it was 305 nM.

As for `CC(=O)NC1CCN(C(=O)c2ccc(NC(=O)Nc3ccc(-c4nc(N5CCOCC5)nc(N5CCCN(C(C)C)CC5)n4)cc3)cc2)CC1` [Example 661, N-{1-[(4-{[(4-{4-[4-(1-methylethyl)-1,4-diazepan-1-yl]-6-morpholin-4-yl-1,3,5-triazin-2-yl}phenyl)carbamoyl]amino}phenyl)carbonyl]piperidin-4-yl}acetamide], the values for the IC50 at PI3K-γ (read-out: IC50 PI3Kγ), at PI3K-α and on Human mTOR (FLAG-TOR) were 462 nM, 56.5 nM and 580 nM, respectively.

For `CCN1CCN(C(=O)c2ccc(NC(=O)Nc3ccc(-c4nc(N5CCOCC5)nc(N5CCCN(C(C)C)CC5)n4)cc3)cc2)CC1` [Example 662, 1-{4-[(4-ethylpiperazin-1-yl)carbonyl]phenyl}-3-(4-{4-[4-(1-methylethyl)-1,4-diazepan-1-yl]-6-morpholin-4-yl-1,3,5-triazin-2-yl}phenyl)urea], the figures for the IC50 at PI3K-γ (read-out: IC50 PI3Kγ), on PI3K-α and at Human mTOR (FLAG-TOR) were 197 nM, 34.3 nM and 770 nM, respectively.

As to `CC(C)N1CCN(C(=O)c2ccc(NC(=O)Nc3ccc(-c4nc(N5CCOCC5)nc(N5CCCN(C(C)C)CC5)n4)cc3)cc2)CC1` [Example 663, 1-(4-{4-[4-(1-methylethyl)-1,4-diazepan-1-yl]-6-morpholin-4-yl-1,3,5-triazin-2-yl}phenyl)-3-(4-{[4-(1-methylethyl)piperazin-1-yl]carbonyl}phenyl)urea], the figures for the half-maximal inhibitory concentration (IC50) at PI3K-γ (read-out: IC50 PI3Kγ), at PI3K-α and at Human mTOR (FLAG-TOR) were 296 nM, 47.3 nM and 590 nM, respectively.

With `CCCCN1CCN(C(=O)c2ccc(NC(=O)Nc3ccc(-c4nc(N5CCOCC5)nc(N5CCCN(C(C)C)CC5)n4)cc3)cc2)CC1` [Example 665, 1-{4-[(4-butylpiperazin-1-yl)carbonyl]phenyl}-3-(4-{4-[4-(1-methylethyl)-1,4-diazepan-1-yl]-6-morpholin-4-yl-1,3,5-triazin-2-yl}phenyl)urea], the half-maximal inhibitory concentration (IC50) on PI3K-γ (read-out: IC50 PI3Kγ) was determined as 284 nM; at PI3K-α, 71 nM; at Human mTOR (FLAG-TOR), 445 nM.

With `COC(=O)c1ccc(NC(=O)Nc2ccc(-c3nc(N4CCOCC4)nc(N4C5CCC4COC5)n3)cc2)cc1` [Example 693, methyl 4-[({4-[4-morpholin-4-yl-6-(3-oxa-8-azabicyclo[3.2.1]oct-8-yl)-1,3,5-triazin-2-yl]phenyl}carbamoyl)amino]benzoate], the figures for the IC50 at PI3K-γ (read-out: IC50 PI3Kγ), on PI3K-α and at Human mTOR (FLAG-TOR) were 289 nM, 69 nM and 1.35 nM, respectively.

`CN1CCN(c2ccc(NC(=O)Nc3ccc(-c4nc(NS(=O)(=O)c5ccccc5)nc(N5CCOCC5)n4)cc3)cc2)CC1` [Example 782, N-{4-[4-({[4-(4-methylpiperazin-1-yl)phenyl]carbamoyl}amino)phenyl]-6-morpholin-4-yl-1,3,5-triazin-2-yl}benzenesulfonamide]: the IC50 on PI3K-γ (read-out: IC50 PI3Kγ) worked out at 252 nM; on PI3K-α it was 124 nM; at Human mTOR (FLAG-TOR), 110 nM.
